In patent EP0414533A1, “Use of iodopropargyl esters of alpha-amino acid derivatives as antimicrobial agents” (ROHM AND HAAS COMPANY, priority 1989, dated 1991):
Converted amounts (≈) assume the structure as drawn. “And” between values parts separate entries of the source, which are not always exact repeats. Equal entries are not always repeated. Structures can show the parent of a compound that is named as a salt. Where two headings read alike, the source gives them in different places.

Tests used:
[1] = system: Xanthomonas campestris (XAN); assay: In-vitro plant fungicide test; type: cell-based; conditions: 25 ppm, Table IVa; for inhibition of growth at 25 ppm: Xanthomonas campestris, read-out: % Control at 25 ppm XAN
THREE FUNGI = assay: MIC test against three fungi in Mycophile Broth, pH 5.0, read after 8 days (Table VII); type: cell-based; conditions: for MIC: 192 h
Rhizoctonia solani (RHI) = assay: In-vitro plant fungicide test; type: cell-based; conditions: Rhizoctonia solani; 25 ppm; Table IVa; read-out: % Control at 25 ppm RHI
Fusarium roseum (FUS) = assay: In-vitro plant fungicide test; type: cell-based; conditions: Fusarium sambucinum, read-out: % Control at 25 ppm FUS, 25 ppm; Table IVa; *=Phytotoxic
Botrytis cinerea (BOC) = assay: In-vitro plant fungicide test; type: cell-based; conditions: Botrytis cinerea, 25 ppm; Table IVa; *=Phytotoxic; read-out: % Control at 25 ppm BOC
[2] = system: Cochliobolus sativus (HEL); assay: In-vitro plant fungicide test; type: cell-based; conditions: Bipolaris sorokiniana, 25 ppm; Table IVa; *=Phytotoxic; read-out: % Control at 25 ppm HEL
Aspergillus niger (ANIG) = assay: Minimum inhibitory concentration (MIC), broth two-fold serial dilution test; type: cell-based; conditions: for MIC: Aspergillus niger
Piricularia oryzae (PIR) = assay: microbe, parasite or virus in culture; type: cell-based; conditions: for inhibition of growth at 25 ppm: read-out: % Control at 25 ppm PIR
Septoria nodorum (SEP) = assay: In-vitro plant fungicide test; type: cell-based; conditions: 25 ppm, Table IVa; for inhibition of growth at 25 ppm: Parastagonospora nodorum, read-out: % Control at 25 ppm SEP
[3] = system: Aureobasidium pullulans (APUL); assay: Minimum inhibitory concentration (MIC), broth two-fold serial dilution test; type: cell-based; conditions: for MIC: Aureobasidium pullulans
[4] = system: Staphylococcus aureus (SAUR); assay: as above; conditions: Table IIIa; for MIC (G+) SAUR: M9G (minimal salts media with glucose); for MIC: Staphylococcus aureus, read-out: MIC (G+) SAUR, M9G (minimal salts media with glucose)
Pythium ultimum (PYU) = assay: In-vitro plant fungicide test; type: cell-based; conditions: Globisporangium ultimum; 25 ppm; Table IVa; read-out: % Control at 25 ppm PYU
Escherichia coli (ECOL) = assay: Minimum inhibitory concentration (MIC), broth two-fold serial dilution test; conditions: for MIC: Escherichia coli, read-out: MIC (G-) ECOL, M9G (minimal salts media with glucose); for MIC (G-) ECOL: M9G (minimal salts media with glucose)
[5] = system: Pseudomonas aerugenosa (PSAE); assay: as above; conditions: Table IIIa; for MIC: Pseudomonas, read-out: MIC (G-) PSAE, M9G (minimal salts media with glucose); for MIC (G-) PSAE: M9G (minimal salts media with glucose)
[6] = system: Phytophthora capsici (PHY); assay: In-vitro plant fungicide test; type: cell-based; conditions: Phytophthora capsici; 25 ppm; Table IVa; read-out: % Control at 25 ppm PHY
[7] = system: Pseudomonas fluorescens (PSFL); assay: Minimum inhibitory concentration (MIC), broth two-fold serial dilution test; conditions: Table IIIa; for MIC: Pseudomonas fluorescens, read-out: MIC (G-) PSFL, M9G (minimal salts media with glucose); for MIC (G-) PSFL: M9G (minimal salts media with glucose)
[8] = Aspergillus niger, serial dilutions from 50 ppm, read after 8 days of incubation, read-out: MIC ANIG
[9] = Aureobasidium pullulans, serial dilutions from 50 ppm, read after 8 days of incubation, read-out: MIC APUL
[10] = Gloeophyllum trabeum, serial dilutions from 50 ppm, read after 8 days of incubation, read-out: MIC GTRA
[11] = M9G (minimal salts media with glucose), Table IIIa, read-out: MIC (F) ANIG
[12] = M9G (minimal salts media with glucose), Table IIIa, read-out: MIC (F) APUL
[13] = M9G (minimal salts media with glucose), Table IIIa
[14] = Aspergillus niger, pH 5, read-out: MIC ANIG, Aspergillus niger, serial dilutions from 50 ppm, read after 8 days of incubation
[15] = Aureobasidium pullulans, pH 5, read-out: MIC APUL, Aureobasidium pullulans, serial dilutions from 50 ppm, read after 8 days of incubation
[16] = Gloeophyllum trabeum, pH 5, read-out: MIC GTRA, Gloeophyllum trabeum, serial dilutions from 50 ppm, read after 8 days of incubation
[17] = M9G (minimal salts media with glucose), Table IIIa, trifluoroacetate

Structure (SMILES)	inhibition of growth at 25 ppm [1] [%]	MIC (THREE FUNGI; [8]) [µg/mL]	MIC (THREE FUNGI; [9]) [µg/mL]	MIC (THREE FUNGI; [10]) [µg/mL]	inhibition of growth at 25 ppm (Rhizoctonia solani (RHI)) [%]	inhibition of growth at 25 ppm (Fusarium roseum (FUS)) [%]	inhibition of growth at 25 ppm (Botrytis cinerea (BOC)) [%]	inhibition of growth at 25 ppm [2] [%]	MIC (Aspergillus niger (ANIG); [11]) [µg/mL]	inhibition of growth at 25 ppm (Piricularia oryzae (PIR)) [%]	inhibition of growth at 25 ppm (Septoria nodorum (SEP)) [%]	MIC [3, 12] [µg/mL]	MIC (G+) SAUR [4] [PPM]	MIC [4] [µg/mL]	inhibition of growth at 25 ppm (Pythium ultimum (PYU)) [%]	MIC (Escherichia coli (ECOL); Table IIIa) [µg/mL]	MIC [5] [µg/mL]	inhibition of growth at 25 ppm [6] [%]	% Control at 25 ppm SEP (Septoria nodorum (SEP)) [%]	MIC [7] [µg/mL]	further results
C[C@@H](NC(=O)OC(C)(C)C)C(=O)OCC#CI [Compound 23, N-t-butoxycarbonyl-D-alanine iodopropargyl ester]	0	6.2 (≈ 17.6 µM)	25 (≈ 70.8 µM)	1.6 (≈ 4.53 µM)	100	100	100	100	< 4	100	100	< 4	32	63	100						
C[C@@H](OCc1ccccc1)[C@H](NC(=O)OC(C)(C)C)C(=O)OCC#CI [Compound 5, N-t-butoxycarbonyl-O-benzyl-L-threonine iodopropargyl ester]	0	> 50	> 50	6.2 (≈ 13.1 µM)	100	95			25	100	90	< 0.8		63	0	> 100	> 100	50	75	> 100	
C[C@@H](NC(=O)OC(C)(C)C)C(=O)N[C@H](C)C(=O)OCC#CI [Compound 25, N-t-butoxycarbonyl-D-alanyl-D-alanine iodopropargyl ester]		50 (≈ 118 µM)	> 50	6.2 (≈ 14.6 µM)																	MIC (Escherichia coli (ECOL); Table IIIc, iodopropargyl esters of peptides): 63 µg/mL; MIC (Aspergillus niger (ANIG); M9G (minimal salts media with glucose), Table IIIc, iodopropargyl esters of peptides, read-out: MIC (F) ANIG): < 4 µg/mL; MIC ([3]; M9G (minimal salts media with glucose), Table IIIc, iodopropargyl esters of peptides, read-out: MIC (F) APUL): < 4 µg/mL
C[C@H](N)C(=O)OCC#CI [Compound 22, L-alanine iodopropargyl ester]													100						100		MIC (G-) ECOL (Escherichia coli (ECOL); Table IIIa): 100 PPM; % Control at 25 ppm XAN [1]: 0%; MIC ANIG (THREE FUNGI; Aspergillus niger, serial dilutions from 50 ppm, read after 8 days of incubation): 12.5 ppm; MIC APUL (THREE FUNGI; Aureobasidium pullulans, serial dilutions from 50 ppm, read after 8 days of incubation): 50 ppm; MIC (G-) PSAE [5]: 100 PPM; MIC (F) ANIG (Aspergillus niger (ANIG); [13]): <0.8 PPM; % Control at 25 ppm PIR (Piricularia oryzae (PIR); 25 ppm): 100%; MIC (F) APUL [3, 13]: <0.8 PPM; MIC (G-) PSFL [7]: 100 PPM
C[C@@H](N)C(=O)OCC#CI [Compound 24, D-alanine iodopropargyl ester trifluoroacetate]	0				100	75	0	100		100	100			125	100	32				63	MIC (G-) ECOL (Escherichia coli (ECOL); Table IIIa, trifluoroacetate): 63 PPM; MIC (THREE FUNGI; [14]): 12.5 µg/mL; MIC (THREE FUNGI; [15]): 25 µg/mL; MIC (THREE FUNGI; [16]): 12.5 µg/mL; MIC (Aspergillus niger (ANIG); read-out: MIC (F) ANIG, M9G (minimal salts media with glucose), Table IIIa): < 4 µg/mL; MIC ([3]; read-out: MIC (F) APUL, M9G (minimal salts media with glucose), Table IIIa): < 4 µg/mL; MIC (G+) SAUR ([4]; trifluoroacetate): 63 PPM; MIC (G-) PSFL ([7]; trifluoroacetate): 32 PPM
C[C@H](N)C(=O)OCC#CI [Compound 8, L-alanine iodopropargyl ester trifluoroacetate]	0				100	100	100	100		100	100				100	64	125	100			MIC (G-) ECOL (Escherichia coli (ECOL); Table IIIa, trifluoroacetate): >100 PPM; MIC (THREE FUNGI; [14]): 12.5 µg/mL; MIC (THREE FUNGI; [15]): 25 µg/mL; MIC (THREE FUNGI; [16]): 12.5 µg/mL; MIC (G-) PSAE ([5]; trifluoroacetate): >100 PPM; MIC (F) ANIG (Aspergillus niger (ANIG); [17]): <4 PPM and 3 PPM; MIC (F) APUL [3, 17]: <4 PPM and 2 PPM
